Assay results reported in patent publication US7282491B2, “Prokaryotic proteasomal proteases of Mycobacterium tuberculosis (MTB) as targets for antibiotic therapy” (Cornell Research Foundation, Inc., priority 2002, dated 2007).

Assays:
[1] = system: Rv2115c and Rv2097c mutants; type: cell-based, Mycobacterium tuberculosis

Compound: CC(C)C[C@H](NC(=O)[C@H](Cc1cccc2ccccc12)NC(=O)N1CCOCC1)B(O)O [MLN-273, N-[4-morpholine]carbonyl-β-[1-naphthyl]-L-alanine-L-leucine boronic acid]
- growth of Rv2115c and Rv2097c mutants under standard culture conditions [1]: suppressed the growth of these mutants to same extent as for wt Mtb
- augmentation of the toxicity of nitrite against the Rv2115c mutant (Rv2115c-mutant Mtb): augmented the toxicity of nitrite against the Rv2115c mutant
